Source: US20260234543A1, “MICROORGANISMS AND METHODS FOR REDUCING BY-PRODUCTS” (Genomatica, Inc., priority 2023, published 2026)

How the values were obtained:
[1] = tested on: acyl-CoA synthetase (ACS) (SEQ ID NO: 1); experiment: ACS activity on substrates of various chain lengths (enzymatic coupled assay for detection of AMP); assay type: biochemical, Ruegeria pomeroyi; conditions: 5 mM substrate, pH 7.5; for Activity: 250 μM CoA, 1 mM ATP
Method: Purified acyl-CoA synthetase (ACS) (GenBank Accession No. WP_011046428.1; see, SEQ ID NO: 1) was assayed for activity on a range of substrates of various chain lengths. The substrates tested, which were conjugate bases (or carboxylates) of C2-C8 carboxylic acids, included acetate (C2), acetoacetate (C4), butyrate (C4), (R)- and(S)-3-hydroxybutryate ((R)-3-HB and(S)-3HB; C4), succinate (C4), hexanoate (C6), adipate (C6), 6-aminocaproic acid (6ACA; C6), and octanoate (C8).
An enzymatic coupled assay for detection of AMP, which is a co-product of the synthetase/ligase enzymatic reaction catalyzed by the ACS/CoA ligase, was used. The coupling enzymes used were adenylate kinase, pyruvate dehydrogenase, and lactate dehydrogenase, which catalyze reactions resulting in the oxidation of 2 NADH molecules per molecule of AMP produced by the ACS/CoA ligase enzymatic reaction. The coupling reagents for AMP detection were phospho (enol) pyruvate and NADH. The ACS/CoA ligase enzymatic reactions were followed by monitoring NADH oxidation over time, by measuring absorbance at 340 nm.
Reactions were set up in 96-well absorbance plates, in aqueous buffer at pH 7.5, and 5 mM of conjugate base substrate, 250 μM of Coenzyme A (CoA), 1 mM of ATP, 5 mM of MgCl2, 1 mM of phospho (enol) pyruvate, 500 μM of NADH, and non-rate limiting concentrations of the three coupling enzymes (adenylate kinase, pyruvate dehydrogenase, and lactate dehydrogenase), were added for each reaction. The ACS enzyme was added at a concentration that was appropriate for measuring a linear change on absorbance over up to 20 minutes. For example, 100 nM of ACS was added for the reactions with butyrate or 3-HB as the substrates. Negative control reactions omitted the substrate (conjugate base), the CoA, or the ACS enzyme.

[2] = tested on: CAR enzyme (SEQ ID NO: 3); experiment: In vitro CAR activity for conversion of 3HB to 3HB-Ald (NADPH absorbance at 340 nm); assay type: biochemical, Mycobacterium avium; conditions: for CAR Activity: 1 μM CAR, 0.5 mM NADPH, 1 mM ATP
Method: In vitro CAR activity for the conversion of 3HB to 3HB—Ald was determined by direct measurement of the decrease in NADPH concentration, by measuring NADPH absorbance at 340 nm over time. The reactions were carried out in 96-well absorbance plates, and varying concentrations of 3HB substrate (see, TABLE 8 below), 0.5 mM of NADPH, 1 mM of ATP, 5 mM of MgCl2, and 1 μM of CAR enzyme (see, SEQ ID NO: 3) were added. A negative control reaction was included, in which addition of 3HB substrate was omitted. CAR activity was measured as μM of NADPH oxidized per minute per μM of CAR enzyme.

| SMILES | Activity [1] | ACS activity on substrate (in words) [1] | other results |
| --- | --- | --- | --- |
| CC(=O)O [Acetate] | 38 μM AMP/min/μM ACS | exhibits activity |  |
| O=C(O)CCC(=O)O [Succinate, succinate] | 0.06 μM AMP/min/μM ACS | exhibits activity |  |
| CCCCCCCC(=O)O [Octanoate, octanoate] | No activity |  |  |
| CC(=O)CC(=O)O [Acetoacetate] | 34 μM AMP/min/μM ACS | exhibits activity |  |
| O=C(O)CCCCC(=O)O [Adipate, adipate] | No activity |  |  |
| C[C@@H](O)CC(=O)O [(R)-3HB, (3R)-hydroxybutyrate] | 322 μM AMP/min/μM ACS |  |  |
| NCCCCCC(=O)O [Strain 6ACA, 6-aminocaproic acid] | 0.015 μM AMP/min/μM ACS | exhibits activity |  |
| CC(O)CC(=O)O (stereo not drawn) [Strain 3HB, 3-hydroxybutyrate] |  | has activity on both the (R) and(S) forms | CAR activity as a function of 3HB concentration (in words) ([2]; 0.78125-50 mM 3HB): CAR activity increases as the concentration of 3HB substrate increases; CAR Activity ([2]; 3HB substrate 0.78125 mM): 0.47 μM NADPH oxidized/min/μM CAR; CAR Activity ([2]; 3HB substrate 1.5625 mM): 1.30 μM NADPH oxidized/min/μM CAR; CAR Activity ([2]; 3HB substrate 3.125 mM): 2.61 μM NADPH oxidized/min/μM CAR; CAR Activity ([2]; 3HB substrate 6.25 mM): 4.24 μM NADPH oxidized/min/μM CAR; CAR Activity ([2]; 3HB substrate 12.5 mM): 5.87 μM NADPH oxidized/min/μM CAR; CAR Activity ([2]; 3HB substrate 25 mM): 8.81 μM NADPH oxidized/min/μM CAR; CAR Activity ([2]; 3HB substrate 50 mM): 10.25 μM NADPH oxidized/min/μM CAR |
| C[C@H](O)CC(=O)O [(S)-3HB, (3S)-hydroxybutyrate] | 222 μM AMP/min/μM ACS |  |  |
